Results reported in paper PMC10663516 (Scientific Reports, 2023).

How the values were obtained:
Format in all cases: in vivo, mouse
LY0257/ABC = assay: DLBCL PDX model; conditions: LY0257/ABC MyD88, 17 days, QD PO; TL-895 and ibrutinib 25 mg/kg, acalabrutinib 30 mg/kg
Protocol: (§1) All three compounds were formulated in a solution of 20% kleptose (hydroxypropyl β-cyclodextrin) in 50 mM citrate and administered QD PO during the treatment periods given for each model.
(§2) For mean values > 0: %ΔT/ΔC=endtumorvolumetreatment-starttumorvolumetreatment/endtumorvolumecontrol-starttumorvolumecontrol×100
(§3) For mean values ≤ 0 (i.e. regression): %ΔT/ΔC=endtumorvolumetreatment-starttumorvolumetreatment/starttumorvolumecontrol×100
(§4) The research use of patient material in PDX models at Crown Bioscience, XenoSTART and EPO-GmbH was approved by the local Institutional Ethical Review Boards and the patients provided written informed consent. Molecular analysis was performed on samples from each model using the EdgeSeq DLBCL Cell of Origin Assay (HTG Molecular Diagnostics, Tucson, AZ, USA) to confirm ABC-GCB DLBCL subtype.
(§5) Stock mice inoculated with human DLBCL cancer tissues were euthanized by progressive hypoxemia with CO2 and tumors were harvested. Tumor fragments were used at three different contract research organizations for xenotransplantation into different mouse strains for the following models: (1) 6-week-old female nude (NMRI:nu/nu) or CB17-SCID mice (Javier Labs, France): Ly12638, Ly11212, and Ly13005 (Experimental Pharmacology and Oncology Berlin-Buch GmbH [EPO-GmbH], Germany); (2) 6–8-week-old female BALB/c nude or NOD SCID mice (Beijing HFK Bioscience Co., Ltd. Beijing, China): LY0257, LY2214, LY3604, LY2298, LY2264, LY2318, and LY2345 (Crown Bioscience Inc, Taicang, China); and (3) 6–12-week-old female CB-17 SCID mice (CB17/Icr-Prkdc^scid/IcrIcoCrl Charles River Laboratories, Wilmington, MA, USA): ST118B, ST949B, ST359, ST949, ST2761B, ST2963, ST1361, ST2078, ST1735B, ST2902, and ST3497 (XenoSTART, San Antonio, TX, USA).
(§6) When the average tumor volume was within a pre-determined range (100–300 mm^3), mice were assigned to treatment groups to balance the mean starting tumor volumes (n = 5 for all models except LY13005, which was n = 3). […] Tumor volumes were recorded 2–3 times per week. Mean %∆T/∆C was calculated at the end of treatment as described above for MCL models.
(§7) Tumor volume was used as the measure of efficacy for statistical analyses of in vivo xenograft studies. Tumor volume data from individual studies were log-transformed and statistically analyzed using repeated measures analysis of covariance (RM-ANCOVA) to determine significant treatment effects, followed by post hoc Tukey’s test for multiple pairwise comparisons (all α = 0.05) using R software. Day 0 data were used only as covariates in the analyses because tumor measurements on that day were recorded before the first treatments were administered.

LY11212/GCB = assay: DLBCL PDX model; conditions: 13 days, QD PO, TL-895 and ibrutinib 25 mg/kg, acalabrutinib 30 mg/kg
Protocol: as §1, §2, §3, §4, §5, §6, §7

LY12638/GCB = assay: DLBCL PDX model; conditions: 25 days, QD PO, TL-895 and ibrutinib 25 mg/kg, acalabrutinib 30 mg/kg
Protocol: as §1, §2, §3, §4, §5, §6, §7

LY13005/ABC = assay: DLBCL PDX model; conditions: 14 days, QD PO, TL-895 and ibrutinib 25 mg/kg, acalabrutinib 30 mg/kg
Protocol: as §1, §2, §3, §4, §5, §6, §7

LY2214/Unc = assay: DLBCL PDX model; conditions: 17 days, QD PO, TL-895 and ibrutinib 25 mg/kg, acalabrutinib 30 mg/kg
Protocol: as §1, §2, §3, §4, §5, §6, §7

LY2264/ABC = assay: DLBCL PDX model; conditions: LY2264/ABC MyD88, 25 days, QD PO; TL-895 and ibrutinib 25 mg/kg, acalabrutinib 30 mg/kg
Protocol: as §1, §2, §3, §4, §5, §6, §7

LY2298/ABC = assay: DLBCL PDX model; conditions: LY2298/ABC MyD88, 16 days, QD PO; TL-895 and ibrutinib 25 mg/kg, acalabrutinib 30 mg/kg
Protocol: as §1, §2, §3, §4, §5, §6, §7

LY2318/ABC = assay: DLBCL PDX model; conditions: 14 days, QD PO, TL-895 and ibrutinib 25 mg/kg, acalabrutinib 30 mg/kg
Protocol: as §1, §2, §3, §4, §5, §6, §7

LY2345/ABC = assay: DLBCL PDX model; conditions: 17 days, QD PO, TL-895 and ibrutinib 25 mg/kg, acalabrutinib 30 mg/kg
Protocol: as §1, §2, §3, §4, §5, §6, §7

LY3604/ABC = assay: DLBCL PDX model; conditions: 17 days, QD PO, TL-895 and ibrutinib 25 mg/kg, acalabrutinib 30 mg/kg
Protocol: as §1, §2, §3, §4, §5, §6, §7

ST118B/ABC = assay: DLBCL PDX model; conditions: ST118B/ABC MyD88, 19 days, QD PO; TL-895 and ibrutinib 25 mg/kg, acalabrutinib 30 mg/kg
Protocol: as §1, §2, §3, §4, §5, §6, §7

ST1361/GCB = assay: DLBCL PDX model; conditions: 11 days, QD PO, TL-895 and ibrutinib 25 mg/kg, acalabrutinib 30 mg/kg
Protocol: as §1, §2, §3, §4, §5, §6, §7

ST1735B/GCB = assay: DLBCL PDX model; conditions: 29 days, QD PO, TL-895 and ibrutinib 25 mg/kg, acalabrutinib 30 mg/kg
Protocol: as §1, §2, §3, §4, §5, §6, §7

ST2078/GCB = assay: DLBCL PDX model; conditions: 20 days, QD PO, TL-895 and ibrutinib 25 mg/kg, acalabrutinib 30 mg/kg
Protocol: as §1, §2, §3, §4, §5, §6, §7

ST23497/GCB = assay: DLBCL PDX model; conditions: 17 days, QD PO, TL-895 and ibrutinib 25 mg/kg, acalabrutinib 30 mg/kg
Protocol: as §1, §2, §3, §4, §5, §6, §7

ST2761B/GCB = assay: DLBCL PDX model; conditions: 24 days, QD PO, TL-895 and ibrutinib 25 mg/kg, acalabrutinib 30 mg/kg
Protocol: as §1, §2, §3, §4, §5, §6, §7

ST2902/GCB = assay: DLBCL PDX model; conditions: 22 days, QD PO, TL-895 and ibrutinib 25 mg/kg, acalabrutinib 30 mg/kg
Protocol: as §1, §2, §3, §4, §5, §6, §7

ST2963/GCB = assay: DLBCL PDX model; conditions: 13 days, QD PO, TL-895 and ibrutinib 25 mg/kg, acalabrutinib 30 mg/kg
Protocol: as §1, §2, §3, §4, §5, §6, §7

ST359/GCB = assay: DLBCL PDX model; conditions: 11 days, QD PO, TL-895 and ibrutinib 25 mg/kg, acalabrutinib 30 mg/kg
Protocol: as §1, §2, §3, §4, §5, §6, §7

ST949/GCB = assay: DLBCL PDX model; conditions: 14 days, QD PO, TL-895 and ibrutinib 25 mg/kg, acalabrutinib 30 mg/kg
Protocol: as §1, §2, §3, §4, §5, §6, §7

DLBCL PDX models = assay: 21 DLBCL PDX models, overall tumor response
Protocol: as §4
Stock mice inoculated with human DLBCL cancer tissues were euthanized by progressive hypoxemia with CO2 and tumors were harvested. […]
as §6
as §7, with “administered. […]” for “administered.”

CC#CC(=O)N1CCC[C@H]1c1nc(-c2ccc(C(=O)Nc3ccccn3)cc2)c2c(N)nccn12 [Acalabrutinib]
%ΔT/ΔC (LY0257/ABC): 54^M %
%ΔT/ΔC (LY11212/GCB): 126%
%ΔT/ΔC (LY12638/GCB): 262%
%ΔT/ΔC (LY13005/ABC): 64^V %
%ΔT/ΔC (LY2214/Unc): 63%
%ΔT/ΔC (LY2264/ABC): 48^V %
%ΔT/ΔC (LY2298/ABC): 27^V,I %
%ΔT/ΔC (LY2318/ABC): 102%
%ΔT/ΔC (LY2345/ABC): 108%
%ΔT/ΔC (LY3604/ABC): 36^V %
%ΔT/ΔC (ST118B/ABC): 104%
%ΔT/ΔC (ST1361/GCB): 74^V %
%ΔT/ΔC (ST1735B/GCB): 80%
%ΔT/ΔC (ST2078/GCB): 115^I %
%ΔT/ΔC (ST23497/GCB): 100%
%ΔT/ΔC (ST2761B/GCB): 94%
%ΔT/ΔC (ST2902/GCB): 85%
%ΔT/ΔC (ST2963/GCB): 116%
%ΔT/ΔC (ST359/GCB): 54%
%ΔT/ΔC (ST949/GCB): 72%
Tumor response rate (models with P < 0.05 versus vehicle) (DLBCL PDX models): 24%

C=CC(=O)N1CCC[C@@H](n2nc(-c3ccc(Oc4ccccc4)cc3)c3c(N)ncnc32)C1 [Ibrutinib]
%ΔT/ΔC (LY0257/ABC): 88^M %
%ΔT/ΔC (LY11212/GCB): 171%
%ΔT/ΔC (LY12638/GCB): 121%
%ΔT/ΔC (LY13005/ABC): 71^M %
%ΔT/ΔC (LY2214/Unc): 77%
%ΔT/ΔC (LY2264/ABC): 74^M %
%ΔT/ΔC (LY2298/ABC): 69^A %
%ΔT/ΔC (LY2318/ABC): 86%
%ΔT/ΔC (LY2345/ABC): 118%
%ΔT/ΔC (LY3604/ABC): 38^V %
%ΔT/ΔC (ST118B/ABC): 90%
%ΔT/ΔC (ST1361/GCB): 65^V %
%ΔT/ΔC (ST1735B/GCB): 75%
%ΔT/ΔC (ST2078/GCB): 75^A %
%ΔT/ΔC (ST23497/GCB): 95%
%ΔT/ΔC (ST2761B/GCB): 71%
%ΔT/ΔC (ST2902/GCB): 92%
%ΔT/ΔC (ST2963/GCB): 81%
%ΔT/ΔC (ST359/GCB): 62%
%ΔT/ΔC (ST949/GCB): 86%
Tumor response rate (models with P < 0.05 versus vehicle) (DLBCL PDX models): 10%

C=CC(=O)N1CCC(F)(CNc2ncnc(N)c2-c2ccc(Oc3ccccc3)cc2)CC1 [TL-895]
%ΔT/ΔC (LY0257/ABC): 45^V,I,A %
%ΔT/ΔC (LY11212/GCB): 115%
%ΔT/ΔC (LY12638/GCB): 84%
%ΔT/ΔC (LY13005/ABC): 43^V,I %
%ΔT/ΔC (LY2214/Unc): 93%
%ΔT/ΔC (LY2264/ABC): 37^V,I %
%ΔT/ΔC (LY2298/ABC): 38%
%ΔT/ΔC (LY2318/ABC): 104%
%ΔT/ΔC (LY2345/ABC): 120%
%ΔT/ΔC (LY3604/ABC): 32^V %
%ΔT/ΔC (ST118B/ABC): 68%
%ΔT/ΔC (ST1361/GCB): 60^V %
%ΔT/ΔC (ST1735B/GCB): 101%
%ΔT/ΔC (ST2078/GCB): 114%
%ΔT/ΔC (ST23497/GCB): 101%
%ΔT/ΔC (ST2761B/GCB): 90%
%ΔT/ΔC (ST2902/GCB): 104%
%ΔT/ΔC (ST2963/GCB): 106%
%ΔT/ΔC (ST359/GCB): 71%
%ΔT/ΔC (ST949/GCB): 83%
Tumor response rate (models with P < 0.05 versus vehicle) (DLBCL PDX models): 24%
